Source: patent US11020457B2, “Compositions and methods for protecting the kidney from ischemia reperfusion injury” (University of Virginia Patent Foundation, priority 2013, dated 2021)

Tests used:
C57BL/6 mice = assay: Renal IRI in WT mice: serum iron (ELISA), tissue non-heme iron, liver and serum hepcidin; format: in vivo
Method: (§1) All experiments were performed in accordance with the National Institutes of Health and Institutional Animal Care and Use Guidelines. The Animal Care and Use Committee of the University of Virginia approved all procedures and protocols. C57BL/6 mice from the Jackson Laboratory and hepcidin knockout mice (HAMP−/−), a kind gift from Dr Cindy Roy (John Hopkins University) were used in this study. All experiments were performed on 8-10 weeks old male mice. Kidney ischemia-reperfusion surgery was performed as previously reported (44). The core temperature of the mice was maintained between 34° C. and 36° C. using a heating pad. After anesthetizing the mice (ketamine, 12 mg/ml; atropine, 0.48 mg/ml; xylazine, 24 mg/ml; […] mixture administered per 20 g body weight), bilateral flank incisions were made, both renal pedicles were exposed, and cross-clamped for 26 minutes (severe I/R injury) or 24 minutes (mild I/R injury). After the determined ischemia, clamps were removed, and kidneys were allowed to reperfuse for 24 hours. Ambient postoperative air temperature was maintained between 30° C. and 32° C. until mice had fully recovered. Sham-operated animals underwent bilateral flank incisions without clamping of renal pedicles. Twenty-four hours later, mice were euthanized, and tissues were harvested.
Animals were divided into three groups, injected intraperitoneally with water and underwent IRI (IRI), injected intraperitoneally with 50-100 μg hepcidin at different time points prior to IRI (Hepcidin-IRI) or were sham operated (Sham). The experimental design is depicted in FIG. 2a.
Serum iron (Abcam), hepcidin (Intrinsic Lifescience) and IL-6 levels (eBioscience) were measured using commercial ELISA kits, as per manufacturers instructions.
Non-heme iron content in tissue was measured using the method described in published literature with slight modifications (60). Briefly, tissues were accurately weighed, finely cut and placed for 20 hours at 65° C. in a solution of 3M HCl/0.61 M trichloroacetic acid. After cooling to room temperature, the acid extract was spun at 12,000 rpm to collect the supernatant. 0.1 mL of the supernatant was incubated with chromogen solution (1.86 mM bathophenanthroline sulfonate/143 mM thioglycollic acid) for 20 minutes, and OD was measured at 535 nm. A standard curve was generated using an iron standard solution (Ricca Iron AA standard) against water as the blank. Non-heme iron content (μg/g) was calculated using the equation described (60).
(§2) For RNA isolation, frozen tissues were re-suspended in RLT buffer (Qiagen Inc, Valencia, Calif.) and homogenized using TissueLyser system (Qiagen Inc, Valencia, Calif.). Total RNA from tissue homogenate was purified using RNAeasy mini kit (Qiagen Inc, Valencia, Calif.) following manufacturers instructions. 1 μg of RNA was used to synthesize cDNA using the iScript cDNA synthesis kit (Bio-Rad). The cDNA template was mixed with iTAQ SYBR green universal super mix (Bio-Rad) and quantitative PCR was carried out on CFX Connect system (Bio-Rad). Predesigned primers for Caspase-3 and Bcl-2 were purchased from Bio-rad. Glyceraldehyde-3-phosphate dehydrogenase (GAPDH) was amplified in parallel and used as the reference gene in quantification. Data is expressed as the relative gene expression and was calculated using the 2 (−ρρC(T)) method.

[1] = tested on: hepcidin knockout mice (HAMP−/−); assay: Mild renal IRI in HAMP-/- mice: plasma creatinine, histology, NGAL; format: in vivo; conditions: for plasma creatinine: HAMP-/- mice, single 50 μg bolus of hepcidin 24 hours before 24 min ischemia, 24 hours reperfusion, p<0.0007; for renal histology (H&E): hepcidin treated HAMP-/- IRI mice
Method: as §1
Renal function was determined by measurement of plasma creatinine, determined using a modified Jaffe colorimetric assay (44).
Kidneys were fixed in buffered formalin for 48 h, embedded in paraffin, sectioned (3-μm thickness), and stained with hematoxylin and eosin (H&E). The extent of acute tubular necrosis (ATN) following IRI was assessed using H&E stained kidney sections. An investigator blinded to the sample identities was used for these analyses to have an unbiased approach.
as §2
Given the significance of hepcidin-mediated ferroportin regulation in preventing renal IRI, we hypothesized that genetic hepcidin deficiency would aggravate IRI. […] There was no significant rise in plasma creatinine after mild IRI in the WT mice and sham operated HAMP^−/− mice (FIG. 6a). […] Renal histology further corroborated the deleterious effect of hepcidin deficiency in AKI. There were higher numbers of casts and necrotic tubules in the S1, S2 and S3 segments in HAMP^−/− kidneys after IRI (FIG. 6b, and Sup FIG. 3b). To investigate if hepcidin re-constitution could rescue HAMP^−/− mice from IRI, we injected these mice with a single 50 μg bolus of hepcidin, 24 hours before renal ischemia and sacrificed them 24 hours after reperfusion. Strikingly, a single injection of hepcidin afforded an almost complete protection against IRI in the HAMP^−/− mice.

[2] = tested on: iron loaded bone marrow macrophages; conditions: hepcidin pretreatment; cited from earlier work

Mouse hepcidin 25 (DTNFPICIFCCKCCNNSQCGICCKT; listed as Mus musculus)
liver hepcidin gene expression (C57BL/6 mice; hepcidin before IRI, IRI Vs. Hepcidin-IRI p<0.005, FIG. 1e): significantly prevented the IRI-induced upregulation of hepcidin | liver non-heme iron levels (C57BL/6 mice; hepcidin before IRI, vs IRI p<0.0001): effectively prevented IRI-induced depletion of liver non-heme iron | splenic non-heme iron content (C57BL/6 mice; hepcidin before IRI, vs IRI p<0.001, vs sham p<0.05): significantly higher splenic non-heme iron content than IRI or sham groups | kidney non-heme iron content (C57BL/6 mice; hepcidin before IRI, vs IRI, p<0.05, FIG. 1b): significantly prevented IRI-induced kidney iron accumulation | serum iron levels (C57BL/6 mice; hepcidin i.p. before IRI, vs untreated IRI, p<0.001, FIG. 1a): significantly reduced IRI-induced increase in serum iron levels | serum hepcidin levels (C57BL/6 mice; hepcidin-treated IRI vs sham, FIG. 1f): not significantly different between hepcidin-treated and sham groups | kidney NGAL expression ([1]; HAMP-/- IRI Vs HAMP-/- Hepcidin-IRI, p<0.05): significantly lowered NGAL expression | plasma creatinine [1]: not significantly different than shams and WT mice | plasma creatinine ([1]; listed as hepcidin): significantly lower compared to untreated mice with levels comparable to that in sham-operated mice | renal histology (H&E) [1]: Hepcidin mediated protection of the kidney after IRI | renal histology (H&E) ([1]; listed as hepcidin): remarkable preservation of renal histology | LPS-induced IL-6 and TNF alpha production [2]: reduced LPS-induced IL-6 and TNF alpha production
